This note sets out measurements from ChEMBL document CHEMBL3352727, “Synthesis, biological evaluation and docking analysis of 3-methyl-1-phenylchromeno[4,3-c]pyrazol-4(1H)-ones as potential cyclooxygenase-2 (COX-2) inhibitors” (Bioorg Med Chem Lett, 2014).

Structures are written as SMILES.

Test [1] concerns Rattus norvegicus. Description: Anti-inflammatory activity in Sprague-Dawley rat model of carrageenan-induced paw edema assessed as inhibition of paw edema volume at 150 umol/kg, po dosed 1 hr before carrageenan challenge and measured 3 hrs post carrageenan challenge. In kind it is functional.
Test [2] deals with T1, Prostaglandin G/H synthase 1 (Ovis aries, UniProt P05979).
T1 sequence (P05979 whole entry): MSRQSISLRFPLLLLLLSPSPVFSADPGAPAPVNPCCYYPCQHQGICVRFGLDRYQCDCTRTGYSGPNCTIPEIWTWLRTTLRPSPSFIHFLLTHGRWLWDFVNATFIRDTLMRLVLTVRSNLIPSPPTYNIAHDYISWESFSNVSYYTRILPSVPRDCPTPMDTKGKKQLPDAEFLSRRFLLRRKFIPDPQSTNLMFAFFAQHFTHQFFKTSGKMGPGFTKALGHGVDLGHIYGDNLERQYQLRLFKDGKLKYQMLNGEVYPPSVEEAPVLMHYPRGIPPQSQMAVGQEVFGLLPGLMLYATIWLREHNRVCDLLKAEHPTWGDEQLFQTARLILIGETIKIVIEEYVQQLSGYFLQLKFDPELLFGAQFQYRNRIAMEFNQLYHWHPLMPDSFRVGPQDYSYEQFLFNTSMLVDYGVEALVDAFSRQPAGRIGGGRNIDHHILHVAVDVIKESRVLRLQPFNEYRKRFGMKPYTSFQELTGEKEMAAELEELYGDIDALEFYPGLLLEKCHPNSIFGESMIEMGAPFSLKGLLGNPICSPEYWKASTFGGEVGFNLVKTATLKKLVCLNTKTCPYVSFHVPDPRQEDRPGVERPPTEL
Nature of the test: Inhibition of ovine COX1 assessed as reduction in PGF2alpha formation incubated for 18 hrs by enzyme immunoassay.

Test [3] relates to Rattus norvegicus. Nature of the test: Anti-inflammatory activity in Sprague-Dawley rat model of carrageenan-induced paw edema assessed as inhibition of paw edema volume at 150 umol/kg, po dosed 1 hr before carrageenan challenge and measured 1 hr post carrageenan challenge. In kind it is functional.
Test [4] concerns Rattus norvegicus. Description: Anti-inflammatory activity in Sprague-Dawley rat model of carrageenan-induced paw edema assessed as inhibition of paw edema volume at 150 umol/kg, po dosed 1 hr before carrageenan challenge and measured 5 hrs post carrageenan challenge. In kind it is functional.
For test [5], the target named is T2, Prostaglandin G/H synthase 1 (Ovis aries) (UniProt P05979).
T2 sequence (whole entry): T1 sequence (P05979 whole entry)
Nature of the test: Inhibition of ovine COX1 assessed as reduction in PGF2alpha formation at 10 uM incubated for 18 hrs by enzyme immunoassay.

With `Cc1nn(-c2ccc(Br)cc2)c2c1c(=O)oc1ccccc12`, the inhibition in vivo at 150 µmol/kg in the test with Rattus norvegicus [1] came out at 27.8%; in the test on Rattus norvegicus [3], 14.2%; with Rattus norvegicus [4], 37%. For the same compound, the IC50 in test [2] was over 30 µM. Further, the inhibition in test [5] stood at 47.5%.
For `Cc1nn(-c2ccc(C(F)(F)F)cc2)c2c1c(=O)oc1ccccc12`, the inhibition in vivo at 150 µmol/kg in the test with Rattus norvegicus [1] was determined as 40.4%; with Rattus norvegicus [3], 27.6%; in the test on Rattus norvegicus [4], 59.9%. The IC50 in test [2] is over 30 µM. In addition, the inhibition in test [5] came out at 34.3%.
Take `COc1ccc2c(c1)oc(=O)c1c(C)nn(-c3cc(C)ccc3C)c12`: the inhibition in test [5] is 39.5%.
As to `Cc1nn(-c2ccc(F)cc2)c2c1c(=O)oc1ccccc12`, the inhibition in vivo at 150 µmol/kg in the test with Rattus norvegicus [1] turned out to be 39.8%; in the test on Rattus norvegicus [3], 24.6%; in the test with Rattus norvegicus [4], 55.6%. Moreover, the IC50 in test [2] was over 30 µM. The inhibition in test [5] was found to be 28.3%.
On to `Cc1nn(-c2ccc(C(F)(F)F)cc2)c2c1c(=O)oc1ccc(Cl)cc12`, for which the values for the inhibition in vivo at 150 µmol/kg with Rattus norvegicus [1], in the test with Rattus norvegicus [3] and in the test with Rattus norvegicus [4] were 36.1%, 23.3% and 57.8%, respectively. For the same compound, the IC50 in test [2] was over 30 µM. In addition, in test [5], the inhibition stood at 33.2%.
On to `Cc1nn(-c2ccc(Cl)cc2Cl)c2c1c(=O)oc1ccccc12`, for which the inhibition in test [5] turned out to be 30.5%.
On to `Cc1nn(-c2ccc(Cl)cc2)c2c1c(=O)oc1ccccc12`, for which the inhibition in vivo at 150 µmol/kg was determined as 35.2% in the test on Rattus norvegicus [1], 21.3% with Rattus norvegicus [3] and 49.4% with Rattus norvegicus [4]. The half-inhibitory concentration (IC50) in test [2] was over 30 µM. For the same compound, in test [5], the inhibition came to 43.7%.
Regarding `COc1ccc2c(c1)oc(=O)c1c(C)nn(-c3ccccc3)c12`, in test [5], the inhibition was 43.2%.
`Cc1nn(-c2ccccc2)c2c1c(=O)oc1ccccc12`: the inhibition in vivo at 150 µmol/kg is 30.1% with Rattus norvegicus [1], 19.3% in the test on Rattus norvegicus [3] and 38.2% in the test on Rattus norvegicus [4]. Moreover, the half-maximal inhibitory concentration (IC50) in test [2] was over 30 µM. Further, the inhibition in test [5] was determined as 48.1%.
As for `COc1ccc2c(c1)oc(=O)c1c(C)nn(-c3ccc(F)cc3)c12`, the inhibition in test [5] was 34.8%.
`Cc1ccc(C)c(-n2nc(C)c3c(=O)oc4ccc(Cl)cc4c32)c1`: in test [5], the inhibition turned out to be 39.2%.
`Cc1nn(-c2ccccc2)c2c1c(=O)oc1ccc(Br)cc12`: in test [5], the inhibition was 54.2%.
With `Cc1nn(-c2ccccc2C(F)(F)F)c2c1c(=O)oc1ccccc12`, the inhibition in test [5] stood at 34.6%.
For the compound `COc1ccc2c(c1)oc(=O)c1c(C)nn(-c3ccc(Br)cc3)c12`, in test [5], the inhibition came to 27.3%.
As for `COc1ccc2c(c1)oc(=O)c1c(C)nn(-c3ccc(C(F)(F)F)cc3)c12`, the results for the inhibition in vivo at 150 µmol/kg in the test on Rattus norvegicus [1], in the test on Rattus norvegicus [3] and in the test with Rattus norvegicus [4] were 32.2%, 21.7% and 43.7%, respectively. In addition, the IC50 in test [2] was over 30 µM. Besides, the inhibition in test [5] turned out to be 33.2%.
Regarding `Cc1nn(-c2ccccc2)c2c1c(=O)oc1ccc(Cl)cc12`, the inhibition in test [5] came to 43.8%.
Same read-out and setting: the same measure for `COc1ccc2c(c1)oc(=O)c1c(C)nn(-c3ccc(Cl)cc3)c12`: 34.8%.
For the compound `Cc1ccc(-c2cc(C(F)(F)F)nn2-c2ccc(S(N)(=O)=O)cc2)cc1` [CELECOXIB], the inhibition in vivo at 150 µmol/kg in the test on Rattus norvegicus [1] was 38.8%; in the test on Rattus norvegicus [3], 24.4%; in the test on Rattus norvegicus [4], 51.4%.
Regarding `COc1ccc2c(c1)oc(=O)c1c(C)nn(-c3ccccc3C(F)(F)F)c12`, in test [5], the inhibition came out at 38.2%.
The same measure, in the same setting: the same measure for `Cc1ccc(C)c(-n2nc(C)c3c(=O)oc4ccccc4c32)c1`: 21.3%.
